{"source": "patent US20190117651A1", "about": "“COMPOSITION FOR STIMULATING SIRTUIN ACTIVITY” (Bitop AG, priority 2016, published 2019)", "tested_on": "sirtuin activity in the lung tissue", "assay": "repeated application of a solution containing ectoine into the lungs of rats; sirtuin activity in the lung tissue", "type": "in vivo", "description": "The composition proposed by the invention can generally be adopted for the treatment and/or prophylaxis of aging symptoms and for influencing self-renewal processes, cell differentiation and cell proliferation. The composition is of particular importance in the treatment of aging symptoms of the lung, especially of the senile emphysema. This is characterized by the degeneration of the alveolar structures in the lungs, which leads to a reduction of the lung surface which is available for the exchange of gas. In such cases, the patient finds it hard to breathe properly. […] The aging of tissue is attributable to an altered gene activity during the self-renewal and cell differentiation processes in (lung) tissue, which is regulated by the accessibility of DNA by histones and is thus also dependent on sirtuins.", "data": [{"smiles": "CC1=NCC[C@@H](C(=O)O)N1", "note": "(stereo in doubt) [ectoine, 2-methyl-1,4,5,6-tetrahydropyrimidine-4-carboxylic acid]", "values": [{"measurement": "loss of sirtuin activity in the lung tissue", "result": "significant reduction of the loss of sirtuin activity"}]}]}
